The record followed here is patent US10780074B2, “Compounds and uses thereof” (Sunovion Pharmaceuticals Inc., priority 2017, dated 2020).

Counter-ions that a name gives are not always drawn. Bounds are passed on as bounds.

This assay concerns behaviors of compound-treated mice. Briefly: Neuropharmacological Assay (SmartCube). The format is in vivo. As to conditions: for minimal effective dose: Mus musculus, ip, 0.25 h, dose having 50% or more total activity in SmartCube, i.p., read-out: MED (minimal effective dose); for AD: ADHD (probability that activity matches class) / AG: analgesic (probability that activity matches class) / AX: anxiolytic (probability that activity matches class) / CE: cognitive enhancer (probability that activity matches class) / DP: anti-depressant (probability that activity matches class) / MS: mood stabilizer (probability that activity matches class) / PS: anti-psychotic (probability that activity matches class) / SD: sedative hypnotic (probability that activity matches class) / UN: uncharacterized CNS activity (probability that activity matches class): i.p. 15 min before behavioral test, most efficacious dose(s) of 3 doses. Summed up: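 Mice dosed i.p. 15 min before testing, with compound in N-methyl-2-pyrrolidone/PEG/propylene glycol, were video-recorded and algorithmically compared with reference-drug behavioral signatures. This gave class-match probabilities (antidepressant, anxiolytic, etc.) at the most efficacious of 3 doses. MED was defined as the dose with ≥50% total activity, usually tested across 0.3–30 mpk.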

Turning to `CNC[C@@H]1OCCc2c(-c3ncc[nH]3)cccc21` [Compound 110, (R)-1-(5-(1H-Imidazol-2-yl)isochroman-1-yl)-N-methylmethanamine hydrochloride salt], the minimal effective dose fell in the range of 10 to 30 mg/kg, the “AD: ADHD (probability that activity matches class)” value (“AD: ADHD” for short) is given as “+ (LOQ ≤ + <5%)”, the “AG: analgesic (probability that activity matches class)” value (“AG: analgesic” for short) is on record as “+ (LOQ ≤ + <5%)” and the “AX: anxiolytic (probability that activity matches class)” value (from here on “AX: anxiolytic”) is “++ (5% ≤ ++ <25%)”. The “CE: cognitive enhancer (probability that activity matches class)” value (shortened to “CE: cognitive enhancer”) was “+ (LOQ ≤ + <5%)”, the “DP: anti-depressant (probability that activity matches class)” value (“DP: anti-depressant” below) is given as “+ (LOQ ≤ + <5%)”, the “MS: mood stabilizer (probability that activity matches class)” value (shortened to “MS: mood stabilizer”) is listed as “+ (LOQ ≤ + <5%)” and the “PS: anti-psychotic (probability that activity matches class)” value (“PS: anti-psychotic” for short) was “+ (LOQ ≤ + <5%)”. The “SD: sedative hypnotic (probability that activity matches class)” value (shortened to “SD: sedative hypnotic”) is “+ (LOQ ≤ + <5%)” and the “UN: uncharacterized CNS activity (probability that activity matches class)” value (shortened to “UN: uncharacterized CNS activity”) is on record as “+ (LOQ ≤ + <5%)”.

With `CNC[C@H]1OCCc2c(-c3ncc[nH]3)cccc21` [Compound 111, (S)-1-(5-(1H-Imidazol-2-yl)isochroman-1-yl)-N-methylmethanamine hydrochloride salt], the minimal effective dose was 10 to 30 mg/kg, the “AD: ADHD” value is on record as “+ (LOQ ≤ + <5%)”, the “AG: analgesic” value is reported as “+ (LOQ ≤ + <5%)” and the “AX: anxiolytic” value is “++ (5% ≤ ++ <25%)”. Further, the “CE: cognitive enhancer” value is “+ (LOQ ≤ + <5%)”, the “DP: anti-depressant” value is given as “+ (LOQ ≤ + <5%)”, the “MS: mood stabilizer” value is given as “+ (LOQ ≤ + <5%)” and the “PS: anti-psychotic” value was “+ (LOQ ≤ + <5%)”. The “SD: sedative hypnotic” value was “+ (LOQ ≤ + <5%)” and the “UN: uncharacterized CNS activity” value was “+ (LOQ ≤ + <5%)”.

For `NC[C@@H]1OCCc2c(-c3cn[nH]c3)cccc21` [Compound 116, (R)-(5-(1H-pyrazol-4-yl)isochroman-1-yl)methanamine hydrochloride salt], the minimal effective dose was in the range of 3 to 10 mg/kg, the “AD: ADHD” value is given as “+ (LOQ ≤ + <5%)”, the “AG: analgesic” value is recorded as “+ (LOQ ≤ + <5%)” and the “AX: anxiolytic” value was “++ (5% ≤ ++ <25%)”. Further, the “CE: cognitive enhancer” value is “+ (LOQ ≤ + <5%)”, the “DP: anti-depressant” value was “++++ (50% ≤ ++++)”, the “MS: mood stabilizer” value is on record as “+ (LOQ ≤ + <5%)” and the “PS: anti-psychotic” value was “++ (5% ≤ ++ <25%)”. Also, the “SD: sedative hypnotic” value is “+ (LOQ ≤ + <5%)” and the “UN: uncharacterized CNS activity” value is on record as “++ (5% ≤ ++ <25%)”.

On to `NC[C@H]1OCCc2c(-c3cn[nH]c3)cccc21` [Compound 117, (S)-(5-(1H-pyrazol-4-yl)isochroman-1-yl)methanamine hydrochloride salt], for which the minimal effective dose was in the range of 3 to 10 mg/kg, the “AD: ADHD” value is “+ (LOQ ≤ + <5%)”, the “AG: analgesic” value was “+ (LOQ ≤ + <5%)” and the “AX: anxiolytic” value is reported as “++ (5% ≤ ++ <25%)”. Also, the “CE: cognitive enhancer” value is “+ (LOQ ≤ + <5%)”, the “DP: anti-depressant” value was “++ (5% ≤ ++ <25%)”, the “MS: mood stabilizer” value is reported as “+ (LOQ ≤ + <5%)” and the “PS: anti-psychotic” value is “++ (5% ≤ ++ <25%)”. In addition, the “SD: sedative hypnotic” value was “++ (5% ≤ ++ <25%)” and the “UN: uncharacterized CNS activity” value is reported as “++ (5% ≤ ++ <25%)”.

For `CNC[C@@H]1OCCc2c(-c3cn[nH]c3)cccc21` [Compound 118, (R)-1-(5-(1H-pyrazol-4-yl)isochroman-1-yl)-N-methylmethanamine hydrochloride salt], the minimal effective dose lay within 10 to 30 mg/kg, the “AD: ADHD” value is on record as “+ (LOQ ≤ + <5%)”, the “AG: analgesic” value was “++ (5% ≤ ++ <25%)” and the “AX: anxiolytic” value was “++ (5% ≤ ++ <25%)”. The “CE: cognitive enhancer” value is reported as “+ (LOQ ≤ + <5%)”, the “DP: anti-depressant” value is on record as “++ (5% ≤ ++ <25%)”, the “MS: mood stabilizer” value is recorded as “+ (LOQ ≤ + <5%)” and the “PS: anti-psychotic” value was “+ (LOQ ≤ + <5%)”. Besides, the “SD: sedative hypnotic” value was “+++ (25% ≤ +++ <50%)” and the “UN: uncharacterized CNS activity” value was “++ (5% ≤ ++ <25%)”.

On to `CNC[C@H]1OCCc2c(-c3cn[nH]c3)cccc21` [Compound 119, (S)-1-(5-(1H-pyrazol-4-yl)isochroman-1-yl)-N-methylmethanamine hydrochloride salt], for which the minimal effective dose is not above 3 mg/kg, the “AD: ADHD” value is listed as “++ (5% ≤ ++ <25%)”, the “AG: analgesic” value is listed as “+ (LOQ ≤ + <5%)” and the “AX: anxiolytic” value is “++ (5% ≤ ++ <25%)”. Moreover, the “CE: cognitive enhancer” value is “+ (LOQ ≤ + <5%)”, the “DP: anti-depressant” value is recorded as “++++ (50% ≤ ++++)”, the “MS: mood stabilizer” value is listed as “+ (LOQ ≤ + <5%)” and the “PS: anti-psychotic” value is “+ (LOQ ≤ + <5%)”. Also, the “SD: sedative hypnotic” value is given as “++ (5% ≤ ++ <25%)” and the “UN: uncharacterized CNS activity” value was “+ (LOQ ≤ + <5%)”.

Consider `CNC[C@@H]1OCCc2c(-c3cc(C)nc(C)c3)cccc21` [Compound 124, (R)-1-(5-(2,6-dimethylpyridin-4-yl)isochroman-1-yl)-N-methylmethanamine dihydrochloride], for which the minimal effective dose lay in the range of 10 to 30 mg/kg, the “AD: ADHD” value is listed as “+ (LOQ ≤ + <5%)”, the “AG: analgesic” value was “+ (LOQ ≤ + <5%)” and the “AX: anxiolytic” value was “+ (LOQ ≤ + <5%)”. Further, the “CE: cognitive enhancer” value is “+ (LOQ ≤ + <5%)”, the “DP: anti-depressant” value is given as “+ (LOQ ≤ + <5%)”, the “MS: mood stabilizer” value is “+ (LOQ ≤ + <5%)” and the “PS: anti-psychotic” value is given as “+ (LOQ ≤ + <5%)”. Besides, the “SD: sedative hypnotic” value is “+ (LOQ ≤ + <5%)” and the “UN: uncharacterized CNS activity” value was “+ (LOQ ≤ + <5%)”.

With `CNC[C@H]1OCCc2c(-c3cc(C)nc(C)c3)cccc21` [Compound 125, (S)-1-(5-(2,6-dimethylpyridin-4-yl)isochroman-1-yl)-N-methylmethanamine dihydrochloride], the minimal effective dose was not above 3 mg/kg, the “AD: ADHD” value is “+ (LOQ ≤ + <5%)”, the “AG: analgesic” value was “+ (LOQ ≤ + <5%)” and the “AX: anxiolytic” value is given as “+ (LOQ ≤ + <5%)”. Further, the “CE: cognitive enhancer” value is recorded as “+ (LOQ ≤ + <5%)”, the “DP: anti-depressant” value is listed as “++++ (50% ≤ ++++)”, the “MS: mood stabilizer” value was “+ (LOQ ≤ + <5%)” and the “PS: anti-psychotic” value is “+ (LOQ ≤ + <5%)”. Further, the “SD: sedative hypnotic” value is reported as “+ (LOQ ≤ + <5%)” and the “UN: uncharacterized CNS activity” value was “++++ (50% ≤ ++++)”.

In the case of `Cc1cc(-c2cccc3c2CCO[C@H]3CN)cc(C)n1` [Compound 126, dihydrochloride], the minimal effective dose lay within 10 to 30 mg/kg, the “AD: ADHD” value is listed as “+ (LOQ ≤ + <5%)”, the “AG: analgesic” value is recorded as “+ (LOQ ≤ + <5%)” and the “AX: anxiolytic” value is “+ (LOQ ≤ + <5%)”. Besides, the “CE: cognitive enhancer” value is listed as “+ (LOQ ≤ + <5%)”, the “DP: anti-depressant” value is listed as “+ (LOQ ≤ + <5%)”, the “MS: mood stabilizer” value is on record as “+ (LOQ ≤ + <5%)” and the “PS: anti-psychotic” value is reported as “+ (LOQ ≤ + <5%)”. The “SD: sedative hypnotic” value is given as “+ (LOQ ≤ + <5%)” and the “UN: uncharacterized CNS activity” value is “+ (LOQ ≤ + <5%)”.

In the case of `Cc1cc(-c2cccc3c2CCO[C@@H]3CN)cc(C)n1` [Compound 127, dihydrochloride], the minimal effective dose lay within 10 to 30 mg/kg, the “AD: ADHD” value was “+ (LOQ ≤ + <5%)”, the “AG: analgesic” value is given as “+ (LOQ ≤ + <5%)” and the “AX: anxiolytic” value is “+ (LOQ ≤ + <5%)”. Moreover, the “CE: cognitive enhancer” value is “+ (LOQ ≤ + <5%)”, the “DP: anti-depressant” value was “++ (5% ≤ ++ <25%)”, the “MS: mood stabilizer” value is reported as “+ (LOQ ≤ + <5%)” and the “PS: anti-psychotic” value was “+ (LOQ ≤ + <5%)”. In addition, the “SD: sedative hypnotic” value is reported as “+ (LOQ ≤ + <5%)” and the “UN: uncharacterized CNS activity” value is “+ (LOQ ≤ + <5%)”.

Regarding `NC[C@@H]1OCCCc2c(-c3ccccn3)cccc21` [Compound 158, (R)-(6-(pyridin-2-yl)-1,3,4,5-tetrahydrobenzo[c]oxepin-1-yl)methanamine hydrochloride salt], the minimal effective dose lay within 10 to 30 mg/kg, the “AD: ADHD” value was “+ (LOQ ≤ + <5%)”, the “AG: analgesic” value was “+ (LOQ ≤ + <5%)” and the “AX: anxiolytic” value is given as “++ (5% ≤ ++ <25%)”. Besides, the “CE: cognitive enhancer” value was “+ (LOQ ≤ + <5%)”, the “DP: anti-depressant” value was “+ (LOQ ≤ + <5%)”, the “MS: mood stabilizer” value is listed as “+ (LOQ ≤ + <5%)” and the “PS: anti-psychotic” value was “+ (LOQ ≤ + <5%)”. The “SD: sedative hypnotic” value is “+ (LOQ ≤ + <5%)” and the “UN: uncharacterized CNS activity” value is “+ (LOQ ≤ + <5%)”.

One may read the minimal effective dose as the lowest level tested that produced the effect sought.
